According to US4338314A, “[1,2]Anellated-7-phenyl-1,4-benzodiazepine and pharmaceutical compositions thereof and use for treatment of ulcers” (Kali-Chemie Pharma GmbH, priority 1978, dated 1982):

Experiments:
[1] = Acute 7-day toxicity after a single application per os (LD50); conditions: mouse, in vivo; single oral dose, unfed white NMRI mice, 7 days
Procedure: The acute 7-day toxicity is determined after a single application per os in white NMRI mice which have not been fed. The calculation of the LD50 is carried out by probitananalysis by means of electronic data processing (see L. Cavalli-Sforza, Gustav-Fischer-Verlag, Stuttgart (1964), Grundbegriffe der Biometrie, Chapter 10, pages 153-190).

[2] = system: indomethacine-induced ulcers; assay: Effectiveness against indomethacine-induced ulcers in rats; assay type: in vivo, rats (male); conditions: Rattus norvegicus, 1 h before 40 mg/kg indomethacine, 24 h, read-out: Ulcer induced by indomethacine, % inhibited; for inhibition in vivo at 100 mg/kg: 100 mg/kg oral; for inhibition in vivo at 200 mg/kg: 200 mg/kg oral
Procedure: 2. Effectiveness Against Indomethacine-Induced Ulcers in Rats Modified Test Procedure According to U. Jahn and R. W. Adrian, Arzneimittel Forschung, (Drug Research) 19, (1969), p. 36.:
The animals of the blank control group receive the corresponding amount by volume of the suspension medium only. One hour after the application of the test compouns, a dosage of 40 mg/kg of indomethacine contained in an amount of 0.5 ml of a suspension per 100 g animal weight are orally applied to each animal for producing ulcers. Twenty-four hours after the application of the indomethacine the animals are sacrificed.

muscle tone = assay: Testing of musculatropic properties (traction test); assay type: in vivo; conditions: Mus musculus, 2 h; oral, mice, after 120 minutes; half of animals do not touch wire with hind legs within 5 seconds
Procedure: 3. Testing of Musculatropic Properties:
In a traction test, mice are administered the test substance orally. After 120 minutes the mice are attached at the front paws to a horizontally suspended wire. The ED50 is the dose which causes exactly half of the animals not to touch the wire also with their hind legs within a period of 5 seconds, (W. Theobald et al, Arneim. Forschung 17, (1967), page 561). This test measures the influence of the test substance on the muscle tone of the test subject.

[3] = system: central nervous system (hexobarbital sleep time); assay: Central nervous depressant properties (prolonging the hexobarbital sleep time); assay type: in vivo; conditions: Mus musculus, 0.5 h; oral, mice, 30 minutes before 64 mg/kg hexobarbital; half of animals extend sleep by factor of 4; read-out: Prolonging hexobarbitol sleep time (ED50)
Procedure: 4. Testing of Central Nervous Depressant Properties (Prolonging the Hexobarbital sleep time):
The test substance is administered orally to mice. After 30 minutes, the animals are additionally injected with hexabarbitol in an amount of 64 mg/kg. The time point of the onset of sleeping posture is determined and the duration of sleeping posture is compared with a control group treated exclusively with hexobarbitol. The dose, with which half of the animals extend the time of sleeping posture by a factor of 4 over that of the control group, is defined as ED50. (J. W. Kemp. M. Tannhauser and E. A. Swingard, Arch. Int. Pharmacodyn. 193(1971), pp 34-47).

central nervous system = assay: Central nervous / psychopharmacological activity, side effects and toxicity, general statement

SMILES	LD50 at 168 h [1] [mg/kg]	inhibition in vivo at 150 mg/kg ([2]; 150 mg/kg oral) [%]	ED50 (muscle tone) [mg/kg]	ED50 [3] [mg/kg]	inhibition in vivo at 100 mg/kg [2] [%]	inhibition in vivo at 200 mg/kg [2] [%]	inhibition in vivo at 250 mg/kg ([2]; 250 mg/kg oral) [%]	inhibition in vivo at 12 mg/kg ([2]; 12 mg/kg oral, higher doses not tolerable) [%]	psychopharmacological effect (central nervous system; already with small doses)	tolerability of higher doses sufficient to achieve an improved ulcer inhibiting effect (central nervous system; higher doses)
Clc1ccc2c(c1)C(c1ccccc1)=NCC1COCCN21 (stereo not shown) [A]	2260	61	285	31.6						
Fc1ccc2c(c1)C(c1ccccc1)=NCC1COCCN21 (stereo not shown) [B]	> 1370		> 296	80.3	77					
Cc1ccc2c(c1)C(c1ccccc1)=NCC1COCCN21 (stereo not shown) [C]	> 1430		> 316	139		68				
Cc1ccc2c(c1)N1CCOCC1CN=C2c1ccccc1 (stereo not shown) [D]	> 1470		> 316	138	70					
Clc1ccc2c(c1)C(c1ccccc1Cl)=NCC1COCCN21 (stereo not shown) [E]	> 1470		> 316	11.8	86					
COc1ccc2c(c1)N1CCOCC1CN=C2c1ccccc1 (stereo not shown) [F]	> 1430		> 308	202	42					
Cc1cc2c(cc1Cl)N1CCOCC1CN=C2c1ccccc1 (stereo not shown) [G]	> 1520		> 327	119		77				
Clc1ccc2c(c1)C(c1ccccc1)=NCC1CSCCN21 (stereo not shown) [H]	> 1470		316	153	74					
C=CCN1CCN2c3ccc(Cl)cc3C(c3ccccc3)=NCC2C1 (stereo not shown) [I]	1090		> 316	100		81				
Clc1ccc2c(c1)C(c1ccccc1)=NCC1CN(CCc3ccccc3)CCN21 (stereo not shown) [K]	> 1310		> 284	110		85				
Cc1ccc2c(c1)C(c1ccccc1)=NCC1CN(C)CCN21 (stereo not shown) [L]	> 1010		> 215	164			70			
CN1C(=O)CN=C(c2ccccc2)c2cc(Cl)ccc21 [S]			4.2	1.5				28		
CN1C(=O)CN=C(c2ccccc2)c2cc(Cl)ccc21 [Substance S, 7-chloro-1-methyl-5-phenyl-1,3-dihydro-2H-1,4-benzodiazepin-2-one]									strong	not tolerable
